Test results from ChEMBL document CHEMBL4138182, “Aminomethylation of heliomycin: Preparation and anticancer characterization of the first series of semi-synthetic derivatives” (Eur J Med Chem, 2018).
pIC50: −log10 of the molar value. The source made the active and inactive calls. The calls are words filed in the database; no cut-off is given here.

Key:
K562 = assay: Antiproliferative activity against human K562 cells after 72 hrs by MTT assay; type: functional, cell-based; details: K562, 72 h
HeLa = assay: Antiproliferative activity against human HeLa cells after 72 hrs by MTT assay; type: functional, cell-based
HCT-116 [1] = assay: Antiproliferative activity against human HCT116 cells after 72 hrs by MTT assay; type: functional, cell-based; details: HCT-116, 72 h
CCRF-CEM = assay: Antiproliferative activity against human CEM cells after 72 hrs by MTT assay; type: functional, cell-based
[2] = Antiproliferative activity against human K562/4 cells after 72 hrs by MTT assay; type: functional, cell-based; details: K562/4, 72 h
HCT-116 [3] = assay: Antiproliferative activity against p53 deficient human HCT116 cells after 72 hrs by MTT assay; type: functional, cell-based; details: HCT-116, 72 h
L1210 = assay: Antiproliferative activity against mouse L1210 cells after 72 hrs by MTT assay; type: functional, cell-based; details: L1210, 72 h
[4] = Selectivity index, ratio of IC50 for HMEC1 cells to IC50 for human HCT116 cells; type: toxicity; details: HMEC1 cells and HCT116 cells, read-out: Ratio IC50
[5] = Selectivity index, ratio of IC50 for HMEC1 cells to IC50 for mouse L1210 cells; type: toxicity; details: HMEC1 cells and L1210 cells, read-out: Ratio IC50
[6] = Selectivity index, ratio of IC50 for HMEC1 cells to IC50 for human HeLa cells; type: toxicity; details: HMEC1 cells and HeLa cells, read-out: Ratio IC50
HMEC-1 = assay: Antiproliferative activity against HMEC1 cells after 72 hrs by MTT assay; type: cell-based; details: Homo sapiens, HMEC-1, 72 h
[7] = Selectivity index, ratio of IC50 for HMEC1 cells to IC50 for human CEM cells; type: toxicity; details: HMEC1 cells and CEM cells, read-out: Ratio IC50
[8] = molecular target: T1, DNA topoisomerase 1 (Homo sapiens) (UniProt P11387); assay: Inhibition of human DNA topoisomerase 1 assessed as decrease in relaxation of pBR322 at <= 20 uM after 30 to 40 mins by agarose gel electrophoresis
T1 sequence (whole entry): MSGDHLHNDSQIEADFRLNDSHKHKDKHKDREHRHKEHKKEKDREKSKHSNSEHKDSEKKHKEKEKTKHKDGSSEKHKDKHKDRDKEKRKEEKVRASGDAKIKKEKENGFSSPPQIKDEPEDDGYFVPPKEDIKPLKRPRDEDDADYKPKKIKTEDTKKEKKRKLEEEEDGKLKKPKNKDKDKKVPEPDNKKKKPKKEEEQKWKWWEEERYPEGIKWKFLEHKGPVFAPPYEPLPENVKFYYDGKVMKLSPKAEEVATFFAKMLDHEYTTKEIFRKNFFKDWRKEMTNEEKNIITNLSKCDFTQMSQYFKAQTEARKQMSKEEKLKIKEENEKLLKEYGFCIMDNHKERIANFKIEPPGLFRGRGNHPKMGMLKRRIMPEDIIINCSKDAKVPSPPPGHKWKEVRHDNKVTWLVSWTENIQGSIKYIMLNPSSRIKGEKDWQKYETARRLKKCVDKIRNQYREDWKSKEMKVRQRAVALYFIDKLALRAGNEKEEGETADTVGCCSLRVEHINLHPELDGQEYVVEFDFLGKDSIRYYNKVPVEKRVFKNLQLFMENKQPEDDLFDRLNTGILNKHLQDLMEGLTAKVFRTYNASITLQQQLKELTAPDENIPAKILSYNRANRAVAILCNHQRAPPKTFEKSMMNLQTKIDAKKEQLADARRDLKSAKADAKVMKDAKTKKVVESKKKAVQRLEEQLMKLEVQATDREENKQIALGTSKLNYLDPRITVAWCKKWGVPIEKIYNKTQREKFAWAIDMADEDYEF

[9] = Selectivity index, ratio of IC50 for HMEC1 cells to IC50 for p53 deficient human HCT116 cells; type: toxicity; details: HMEC1 cells and p53 deficient HCT116 cells, read-out: Ratio IC50
[10] = Selectivity index, ratio of IC50 for HMEC1 cells to IC50 for human K562 cells; type: toxicity; details: HMEC1 cells and K562 cells, read-out: Ratio IC50
[11] = Selectivity index, ratio of IC50 for HMEC1 cells to IC50 for human K562/4 cells; type: toxicity; details: HMEC1 cells and K562/4 cells, read-out: Ratio IC50
Calf thymus DNA = assay: Binding affinity to calf thymus DNA by visible spectroscopic method; type: nucleic-acid assay; details: Bos taurus

SMILES | pIC50 (K562) | pIC50 (HeLa) | pIC50 (HCT-116 [1]) | pIC50 (CCRF-CEM) | pIC50 (HCT-116 [3]) | pIC50 (L1210) | Topoisomerase 1 inhibition (active/inactive) [8] | Kb (Calf thymus DNA) | pIC50 [2] | selectivity ratio [4] | selectivity ratio [5] | selectivity ratio [6] | pIC50 (HMEC-1) | selectivity ratio [7] | selectivity ratio [9] | selectivity ratio [10] | selectivity ratio [11]
Cc1cc(O)c2c3c4c(cc(O)c13)C(C)(C)C(=O)c1c(O)c(CNCCN(C)C)c(O)c(c1-4)C2=O | 5.66 | 5.41 | 6.70 | 5.74 | 6.15 | 5.72 |  |  | 5.66 |  |  |  |  |  |  |  | 
CCOC(=O)[C@@H]1CCCN1Cc1c(O)c2c3c(c1O)C(=O)C(C)(C)c1cc(O)c4c(C)cc(O)c(c4c1-3)C2=O | 5.66 | 5.89 | 6.15 | 5.92 | 6.00 | 5.46 | Active |  | 5.82 | 2 to 50 | 2 to 50 | 2 to 50 | 5.23 | 2 to 50 | 2 to 50 | 2 to 50 | 2 to 50
Cc1cc(O)c2c3c4c(cc(O)c13)C(C)(C)C(=O)c1c(O)c(CN3CCCC(O)C3)c(O)c(c1-4)C2=O (stereo not given) | 6.15 | 5.44 | 6.00 | 5.68 | 6.05 | 5.47 |  |  | 6.05 |  |  |  |  |  |  |  | 
COc1cccc2c1C(=O)c1c(O)c3c(c(O)c1C2=O)C[C@@](O)(C(=O)CO)C[C@@H]3O[C@H]1C[C@H](N)[C@H](O)[C@H](C)O1 |  |  |  |  |  |  |  | 2 ×10⁶ /M |  |  |  |  |  |  |  |  | 

Now from value to compound, other results behind:

pIC50 (K562) | pIC50 (HeLa) | pIC50 (HCT-116 [1]) | pIC50 (CCRF-CEM) | pIC50 (HCT-116 [3]) | pIC50 (L1210) | Topoisomerase 1 inhibition (active/inactive) [8] | Kb (Calf thymus DNA) | SMILES | pIC50 [2] | selectivity ratio [4] | selectivity ratio [5] | selectivity ratio [6] | pIC50 (HMEC-1) | selectivity ratio [7] | selectivity ratio [9] | selectivity ratio [10] | selectivity ratio [11]
5.07 | 4.95 | 6.52 | 4.62 | 6.70 | 4.21 |  |  | Cc1cc(O)c2c3c4c(cc(O)c13)C(C)(C)C(=O)c1c(O)c(CN3CCOCC3)c(O)c(c1-4)C2=O | 6.52 |  |  |  |  |  |  |  | 
5.82 | 5.59 | 5.44 | 5.47 | 5.96 | 5.54 |  |  | Cc1cc(O)c2c3c4c(cc(O)c13)C(C)(C)C(=O)c1c(O)c(CN3CCC(N)C3)c(O)c(c1-4)C2=O (stereo not given) | 5.35 |  |  |  |  |  |  |  | 
6.52 | 6.10 | 6.52 | 6.05 | 7.00 | 5.47 |  |  | Cc1cc(O)c2c3c4c(cc(O)c13)C(C)(C)C(=O)c1c(O)c(CN3CCCCC3)c(O)c(c1-4)C2=O | 6.10 |  |  |  |  |  |  |  | 
6.40 | < 3.60 | 5.96 | 3.70 | 6.30 | < 3.60 |  |  | CCN(CC)Cc1c(O)c2c3c(c1O)C(=O)C(C)(C)c1cc(O)c4c(C)cc(O)c(c4c1-3)C2=O | 6.52 |  |  |  |  |  |  |  | 
5.26 | 5.19 | 6.70 | 5.01 | 6.22 | 4.51 | Active |  | Cc1cc(O)c2c3c4c(cc(O)c13)C(C)(C)C(=O)c1c(O)c(CN(CC(=O)O)CC(=O)O)c(O)c(c1-4)C2=O | 5.51 | 2 to 50 | 2 to 50 | 2 to 50 | 4.46 | 2 to 50 | 2 to 50 | 2 to 50 | 2 to 50
